Measured values: patent US20260209243A1, “A BIOORTHOGONAL CYCLOADDITION REACTION AND USE THEREOF” (NANJING UNIVERSITY, priority 2022, published 2026)

Tests used:
BSA-FuA = target: T1, BSA-FuA (Bos taurus, UniProt P02769); experiment: In-gel fluorescence assay of DFC reaction on BSA-FuA; assay type: biochemical, bovine; details: incubated in PBS; PDO type cycloadduct confirmed by LC-MS/MS
T1 construct: purchased Sangon Biotech (Shanghai, China)
Experimental: (§1) DFC reaction in PBS and on proteins. (A) The DFC reaction of oD1 with FuA in pH 7.4 PBS buffer; (B) Time-dependent labelling of 2 mg/mL BSA-FuA with 100 nM oD1-TAMRA for time indicated. Fluorescence signals were acquired using Cy3 channel. Coomassie staining was used to assess BSA loading; (C) Schematic illustration on the single-site modification of the protein oD1 (C156)-SNAP-GFP through the DFC reaction. SNAP-GFP (2 mg/mL) in PBS (pH=7.4) was mixed with 1.5 equivalents of BG-PEG4-oD1 and was incubated at room temperature for 20 min to give oD1 (C156)-SNAP-GFP.
DFC-based BSA protein labelling and characterization. […]
A solution of BSA (2 mg/mL) in PBS (pH=7.4) was mixed with 200 equivalents of FuA NHS ester and was shaken (900 rpm) at room temperature for 4 h. […] The concentration of BSA-FuA was quantified with BCA protein assay kit (Pierce).
For concentration-dependent reaction, BSA-FuA (2 mg/mL) was incubated with various concentrations of oD1-TAMRA (0-1000 nM) in PBS at room temperature for 30 min. […] Protein samples (20 μg) were further analyzed by gel electrophoresis using 12% polyacrylamide gels and imaged with Bio-Rad Chemdoc imaging system using corresponding filters. Protein loading was assessed by staining with Coomassie Blue according to manufacturer's instructions.

[1] = Kinetics studies: cycloaddition of o-diones with α-AL; details: aqueous solution, pH ranging from 5 to 9
Experimental: The cycloaddition kinetics of α-AL with different o-diones in pH 7.4 PBS buffer or in aqueous solution with indicated pH.
(§2) Measurement of second order rate constants of (A) reactions of o-dione (25 μM) with furan-2(3H)-one (250 μM) in 1×PBS (pH=7.4) and (B) reactions of oD1 (25 μM) with α-AL (250 μM) in different pH buffer. (When pH=5, 6; oD1 is 250 μM and α-AL is 2.5 mM) by plotting ln[1/(1−x)] versus time of o-dione with furan-2(3H)-one reaction (x represents the percent conversion of o-dione).
All kinetics experiments were carried out at room temperature in 1×PBS (pH=7.4). Second order kinetics were performed by combining o-dione and furan-2(3H)-one in a 1:10 ratio, and the concentration of o-dione is 25/250 μM. Pseudo-first order rate constant kobs was determined by plotting ln[1/(1−x)] versus time and analysis by linear regression. x represents the percent conversion of o-dione. The slope of the linear equation is kobs. The second rate constant k2 was calculated by kobs/[furan-2(3H)-one]. The reported errors for rate constants are based on the standard deviation of the mean for experiments performed in triplicate.

live cells = details: stated as known; cited from earlier work
[2] = Kinetics studies: DFC reaction of FuA with oD1 in PBS; details: pH 7.4 PBS buffer
Experimental: as §1, §2
All kinetics experiments were carried out at room temperature in 1×PBS (pH=7.4). […] Pseudo-first order rate constant kobs was determined by plotting ln[1/(1−x)] versus time and analysis by linear regression. x represents the percent conversion of o-dione. […] The second rate constant k2 was calculated by kobs/[furan-2(3H)-one]. […]

SKOV3 cells = experiment: MTT assay; assay type: cell-based; details: 0-200 μM, 24 h
Experimental: Relative cell viability of SKOV3 cells after incubation with FuA or PDO6. SKOV3 cells were incubated with 0-200 μM FuA or PDO6 for 24 h. MTT was used to assess the cell viability. Data are shown as mean±SEM (n=3).
SKOV3 cells were seeded in 96-well plates with a concentration of 10,000 cells per well. After 12 h, FuA or PDO6 was added with final concentrations of 0, 40, 80, 120, 160, 200 μM. Then, SKOV3 cells were further cultured for 24 h. MTT assay was then carried out. For each well, 20 μL MTT solution (final concentration, 1 mg/mL) was added and 150 μL DMSO was added after 4 h′ incubation. The absorbance at 490 nm was then measured to indicate the cell viability.

T1 sequence (P02769 25-607): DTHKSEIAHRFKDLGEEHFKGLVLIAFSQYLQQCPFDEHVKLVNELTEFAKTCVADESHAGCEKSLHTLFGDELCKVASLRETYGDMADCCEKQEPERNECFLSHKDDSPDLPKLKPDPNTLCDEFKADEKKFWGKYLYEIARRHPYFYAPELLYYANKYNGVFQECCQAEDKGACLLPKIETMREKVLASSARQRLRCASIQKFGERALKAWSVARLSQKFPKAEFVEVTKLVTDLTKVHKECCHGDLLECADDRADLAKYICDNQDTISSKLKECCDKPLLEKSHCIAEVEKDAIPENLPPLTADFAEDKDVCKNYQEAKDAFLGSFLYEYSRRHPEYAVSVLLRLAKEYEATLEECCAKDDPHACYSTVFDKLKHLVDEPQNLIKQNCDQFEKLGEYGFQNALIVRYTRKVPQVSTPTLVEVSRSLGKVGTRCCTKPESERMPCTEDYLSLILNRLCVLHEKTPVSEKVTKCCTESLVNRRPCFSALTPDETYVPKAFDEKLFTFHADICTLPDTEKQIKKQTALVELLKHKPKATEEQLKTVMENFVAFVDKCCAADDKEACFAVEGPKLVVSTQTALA

O=C1C(=O)c2ccccc2-c2ccccc21 [PQ, phenanthrene-9,10-dione]
fluorescence of BSA-FuA after incubation (BSA-FuA): fluorescence turn-on

O=C(O)c1ccc2c(c1)-c1ccccc1C(=O)C2=O [oD1]
pH dependence of reaction kinetics with α-AL [1]: increase of pH under which α-AL is stable enough apparently accelerates the cycloaddition reaction
compatibility with live cells (live cells): compatible with live cells

O=C(O)CCCC1=CCC(=O)O1 [FuA, 4-(5-oxo-4,5-dihydrofuran-2-yl)butanoic acid]
second-order constant of DFC reaction of oD1 with FuA [2]: about 4 M^−1 s^−1
cytotoxicity / compatibility with live cells (MTT) (SKOV3 cells): good compatibility with live cells
